This note sets out measurements from patent US20240150293A1, “SPIROCYCLOHEXANE DERIVATIVES, PHARMACEUTICAL COMPOSITIONS CONTAINING THEM AND THEIR USES AS ANTI-APOPTOTIC INHIBITORS” (LES LABORATOIRES SERVIER, priority 2021, published 2024).

SMILES strings stand for the structures.

Usually Ki stands for the dissociation constant of the complex between target and ligand, obtained from inhibition or displacement.

In the first assay the target is Cy5-labelled Mcl1 (amino acids 171-321) C286S protein (UniProtKB Q07820) (Homo sapiens (Human), UniProt Q07820, C286S). In words: Inhibition of Mcl-1 by the fluorescence quenching assay (Example A, Method B). In kind it is binding.
Cy5-labelled Mcl1 (amino acids 171-321) C286S protein, sequence (Q07820 171-321 C286S): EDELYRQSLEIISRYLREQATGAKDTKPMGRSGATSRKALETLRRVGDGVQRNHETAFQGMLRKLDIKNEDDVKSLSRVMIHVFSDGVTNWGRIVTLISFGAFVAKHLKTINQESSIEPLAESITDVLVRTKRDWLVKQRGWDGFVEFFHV
Conditions: not given
From the text:
Fluorescence quenching assay measures the change fluorescence intensity of C-terminally Cy5-labelled Mcl1 (amino acids 171-321) C286S protein (UniProtKB® primary accession number Q07820) having an amino acid sequence:
which is linked at the C-terminus to the amino acid X which corresponds to a cysteine labelled on the sulfur with sulpho-Cyanine5 from Lumiprobe GmbH catalogue number 13380, upon binding of a C-terminally labelled peptide derived from PUMA (UniProtKB® primary accession number Q9BXH1) having an amino acid sequence:
which is linked at the C-terminus to the amino acid X′, where X′ is cysteine labelled on the sulfur with TQ5WS from AAT Bioquest catalogue number 2079.
The addition of a compound which binds competitively to the same site as the peptide will result in an increase in the fluorescence intensity of the protein due to displacement of the fluorescence quencher.
An 11-point serial dilution of each compound was prepared in DMSO, the final buffer conditions were 10 mM 4-(2-hydroxyethyl)-1-piperazineethanesulfonic acid [HEPES], 150 mM NaCl, 0.05% Tween 20, pH 7.4 and 5% DMSO. The final protein concentration in the assay was 1 nM with the peptide present at 10, 20 or 400 nM. The experiments were incubated for 2 hours at room temperature before fluorescence intensity was measured on a Biotek SynergyNeo plate reader (Excitation 620 nm, emission 680 nm). The dose response curves were plotted with XL-Fit software using a 4-Parameter Logistic Model (Sigmoidal DoseResponse Model) and the inhibitory concentrations that gave a 50% increase in fluorescence intensity was determined (IC50). The Ki values were determined from the IC50 values according to Cer et al, Nucleic Acids Res, 2009, 37 (WebServer issue): W441-W445. Inhibition constants (Ki) are determined from complete binding inhibition curves (cKi) or from estimated from incomplete binding inhibition curves (eKi) in most cases due to low activity.
`C[C@@H](COc1ccnc2c1CCC2(C)O)C[C@H]1Cc2ccccc2[C@]12CC[C@@](Nc1cccc(Cl)c1)(C(=O)O)CC2` (stereo partly drawn) [Example 618, (1r,2′S,4S)-4-(3-chloroanilino)-2′-{(2R)-3-[(7-hydroxy-7-methyl-6,7-dihydro-5H-cyclopenta[b]pyridin-4-yl)oxy]-2-methylpropyl}-2′,3′-dihydrospiro[cyclohexane-1,1′-indene]-4-carboxylic acid]: the Ki worked out at 42.6 nM.

Consider `CC(C)(C)OC(=O)N1CCC(CC2=Cc3ccccc3[C@]23CC[C@@](Nc2cccc(Cl)c2)(C(=O)O)CC3)CC1` [Example 558, (1r,4r)-2′-{[1-(tert-butoxycarbonyl)piperidin-4-yl]methyl}-4-(3-chloroanilino)spiro[cyclohexane-1,1′-indene]-4-carboxylic acid], for which the Ki amounted to 549 nM. Consider `C[C@@H](COc1ccnc2c1[C@H](C)CCC2)C[C@H]1Cc2cc3c(cc2[C@]12CC[C@@](Nc1cccc(Cl)c1)(C(=O)Oc1ccc4c(c1)CCC4)CC2)OCO3` [Example 937, 2,3-dihydro-1H-inden-5-yl (1r,4S,6′S)-4-(3-chloroanilino)-6′-[(2R)-2-methyl-3-{[(5R)-5-methyl-5,6,7,8-tetrahydroquinolin-4-yl]oxy}propyl]-6′,7′-dihydro-2′H-spiro[cyclohexane-1,5′-indeno[5,6-d][1,3]dioxole]-4-carboxylate], for which the Ki stood at 28 nM. Same read-out and setting: under `O=C(O)[C@]1(Nc2cccc(Cl)c2)CC[C@@]2(CC1)c1ccccc1C[C@H]2CCCOc1cccc2[nH]ccc12` [Example 485, (1r,2′R,4R)-4-(3-chloroanilino)-2′-{3-[(1H-indol-4-yl)oxy]propyl}-2′,3′-dihydrospiro[cyclohexane-1,1′-indene]-4-carboxylic acid] stands 45.5 nM. Same read-out and setting: under `CC[C@@H](COc1ccnc2ccsc12)C[C@@H]1Cc2ccccc2[C@]12CC[C@@](Nc1cccc(Cl)c1)(C(=O)O)CC2` [Example 539, (1r,2′R,4R)-4-(3-chloroanilino)-2′-[(2R)-2-{[(thieno[3,2-b]pyridin-7-yl)oxy]methyl}butyl]-2′,3′-dihydrospiro[cyclohexane-1,1′-indene]-4-carboxylic acid] stands 25.4 nM. On to `Cc1cc(C(C)O)cc2c1CC(C[C@@H](C)COc1ccnc3c1[C@H](C)CCC3)[C@]21CC[C@](Nc2cccc(Cl)c2)(C(=O)O)CC1` (stereo partly drawn) [Example 761, (1r,4R)-4-(3-chloroanilino)-6′-(1-hydroxyethyl)-4′-methyl-2′-[(2R)-2-methyl-3-{[(5R)-5-methyl-5,6,7,8-tetrahydroquinolin-4-yl]oxy}propyl]-2′,3′-dihydrospiro[cyclohexane-1,1′-indene]-4-carboxylic acid], for which the Ki worked out at 65.3 nM.

With `C[C@@H](COc1ccnc2c1CCCCC2)CC1=Cc2ccccc2[C@]12CC[C@@](Nc1cccc(Cl)c1)(C(=O)O)CC2` [Example 632, (1r,4R)-4-(3-chloroanilino)-2′-{(2R)-2-methyl-3-[(6,7,8,9-tetrahydro-5H-cyclohepta[b]pyridin-4-yl)oxy]propyl}spiro[cyclohexane-1,1′-indene]-4-carboxylic acid], the inhibitory constant (Ki) came out at 6.01 nM. The same measure, in the same setting: the figure for `CC(C)COc1cc2c(cc1Cl)C[C@H](C[C@@H](C)COc1ccnc3c1[C@H](C)CCC3)[C@]21CC[C@](Nc2cccc(Cl)c2)(C(=O)O)CC1` [Example 820, (1r,2′S,4S)-5′-chloro-4-(3-chloroanilino)-2′-[(2R)-2-methyl-3-{[(5R)-5-methyl-5,6,7,8-tetrahydroquinolin-4-yl]oxy}propyl]-6′-(2-methylpropoxy)-2′,3′-dihydrospiro[cyclohexane-1,1′-indene]-4-carboxylic acid] is 0.469 nM; for `O=C(O)[C@]1(Nc2cccc(Cl)c2)CC[C@@]2(CC1)c1ccccc1CC2CC(CO)COc1ccnc2c1CCC2` (single isomer, unassigned) [Example 499, (1r,4r)-4-(3-chloroanilino)-2′-(2-{[(6,7-dihydro-5H-cyclopenta[b]pyridin-4-yl)oxy]methyl}-3-hydroxypropyl)-2′,3′-dihydrospiro[cyclohexane-1,1′-indene]-4-carboxylic acid] it is 74.1 nM; for `O=C(O)[C@]1(Nc2cccc(Cl)c2)CC[C@@]2(CC1)c1ccccc1CC2CC(COc1ccnc2c1CCCC2)C(F)F` (single isomer, unassigned) [Example 513, (1r,4r)-4-(3-chloroanilino)-2′-(3,3-difluoro-2-{[(5,6,7,8-tetrahydroquinolin-4-yl)oxy]methyl}propyl)-2′,3′-dihydrospiro[cyclohexane-1,1′-indene]-4-carboxylic acid] it is 27.9 nM.

Consider `O=C(O)[C@]1(Nc2cccc(Cl)c2)CC[C@@]2(CC1)c1ccccc1CC2CC(F)COc1ccnc2c1CCC2` (mixture of isomers) [Example 504, (1r,4r)-4-(3-chloroanilino)-2′-{3-[(6,7-dihydro-5H-cyclopenta[b]pyridin-4-yl)oxy]-2-fluoropropyl}-2′,3′-dihydrospiro[cyclohexane-1,1′-indene]-4-carboxylic acid], for which the Ki was 29.9 nM. Still for that read-out and setting: the figure for `O=C(O)[C@]1(Nc2cccc(Cl)c2)CC[C@@]2(CC1)c1ccccc1CC2CC(F)(F)COc1ccnc2c1CCC2` (stereo partly drawn) [Example 503, (1r,4r)-4-(3-chloroanilino)-2′-{3-[(6,7-dihydro-5H-cyclopenta[b]pyridin-4-yl)oxy]-2,2-difluoropropyl}-2′,3′-dihydrospiro[cyclohexane-1,1′-indene]-4-carboxylic acid] is 63.8 nM; for `O=C(O)[C@]1(Nc2cccc(Cl)c2)CC[C@@]2(CC1)c1ccccc1C[C@@H]2CCCOc1cccc2[nH]ccc12` [Example 486, (1r,2′S,4S)-4-(3-chloroanilino)-2′-{3-[(1H-indol-4-yl)oxy]propyl}-2′,3′-dihydrospiro[cyclohexane-1,1′-indene]-4-carboxylic acid] it is 82 nM; for `Cc1cc(OCCC[C@H]2Cc3ccccc3[C@]23CC[C@@](Nc2cccc(Cl)c2)(C(=O)O)CC3)c2cc[nH]c2c1` [Example 488, (1r,2′S,4S)-4-(3-chloroanilino)-2′-{3-[(6-methyl-1H-indol-4-yl)oxy]propyl}-2′,3′-dihydrospiro[cyclohexane-1,1′-indene]-4-carboxylic acid] it is 152 nM. On to `CCc1cnccc1OC[C@H](C)C[C@H]1Cc2ccccc2[C@]12CC[C@@](Nc1cccc(Cl)c1)(C(=O)O)CC2` [Example 588, (1r,2′S,4S)-4-(3-chloroanilino)-2′-{(2R)-3-[(3-ethylpyridin-4-yl)oxy]-2-methylpropyl}-2′,3′-dihydrospiro[cyclohexane-1,1′-indene]-4-carboxylic acid], for which the Ki came out at 2.68 nM.

Staying with this assay, now noted: @ 10 μM, read-out: Mcl-1 inhibition, % at a single concentration.
Turning to `CC(C)OC(=O)[C@]1(Nc2cccc(Cl)c2)CC[C@@]2(CC1)c1cc3c(cc1C[C@@H]2C[C@@H](C)COc1ccnc2c1[C@H](C)CCC2)OCO3` [Example 931, propan-2-yl (1r,4S,6′S)-4-(3-chloroanilino)-6′-[(2R)-2-methyl-3-{[(5R)-5-methyl-5,6,7,8-tetrahydroquinolin-4-yl]oxy}propyl]-6′,7′-dihydro-2′H-spiro[cyclohexane-1,5′-indeno[5,6-d][1,3]dioxole]-4-carboxylate], the inhibition at 10 µM came to 9.5%.

The assay is the same for the next values; noted with them: Ki determined from IC50.
Turning to `O=C(O)[C@]1(Nc2cccc(Cl)c2)CC[C@]2(CC1)C(CCc1ccccn1)=Cc1ccccc12` [Example 199, (1r,4r)-4-(3-chloroanilino)-2′-[2-(pyridin-2-yl)ethyl]spiro[cyclohexane-1,1′-indene]-4-carboxylic acid], the Ki came to 1250 nM. Same read-out and setting: under `Cc1cc2c(cc1C)[C@]1(CC[C@@](Nc3cccc(Cl)c3)(C(=O)O)CC1)C(Br)=C2` [Example 140, (1s,4s)-2′-bromo-4-(3-chloroanilino)-5′,6′-dimethylspiro[cyclohexane-1,1′-indene]-4-carboxylic acid] stands 57.4 nM; under `N#Cc1cccc(N[C@]2(C(=O)O)CC[C@@]3(CC2)C(Br)=Cc2ccccc23)c1` [Example 82, (1s,4s)-2′-bromo-4-(3-cyanoanilino)spiro[cyclohexane-1,1′-indene]-4-carboxylic acid], 437 nM; under `C[C@@H](COc1ccnc2ccsc12)CN1Cc2ccccc2[C@]12CC[C@@](Nc1cccc(Cl)c1)(C(=O)O)CC2` [Example 38, (1s,4S)-4-(3-chloroanilino)-2′-{(2R)-2-methyl-3-[(thieno[3,2-b]pyridin-7-yl)oxy]propyl}-2′,3′-dihydrospiro[cyclohexane-1,1′-isoindole]-4-carboxylic acid], 14.4 nM.

Turning to `Cc1cccc2c1C=C(Br)[C@]21CC[C@](Nc2cccc(Cl)c2)(C(=O)O)CC1` [Example 141, (1s,4s)-2′-bromo-4-(3-chloroanilino)-4′-methylspiro[cyclohexane-1,1′-indene]-4-carboxylic acid], the Ki came to 91.6 nM.
